Experimental data reported in publication PMC6010123, “Synthesis of chiral pyrazolo[4,3-e][1,2,4]triazine sulfonamides with tyrosinase and urease inhibitory activity” (Journal of Enzyme Inhibition and Medicinal Chemistry, 2016).
Like-named read-outs stand apart in the source and are kept apart here.

Legend:
[1] = biological target: T1, Jack bean urease (EC 3.5.1.5) (Canavalia ensiformis, UniProt P07374); assay: biochemical
T1 construct: purchased Sigma (St. Louis, MO, USA)

[2] = biological target: T2, Jack bean urease (Canavalia ensiformis, UniProt P07374); assay: Kinetic study of urease inhibition (Lineweaver-Burk, secondary replot, Dixon plot); assay type: biochemical
T2 construct: purchased Sigma (St. Louis, MO, USA)
T2 sequence (P07374 whole entry, looked up): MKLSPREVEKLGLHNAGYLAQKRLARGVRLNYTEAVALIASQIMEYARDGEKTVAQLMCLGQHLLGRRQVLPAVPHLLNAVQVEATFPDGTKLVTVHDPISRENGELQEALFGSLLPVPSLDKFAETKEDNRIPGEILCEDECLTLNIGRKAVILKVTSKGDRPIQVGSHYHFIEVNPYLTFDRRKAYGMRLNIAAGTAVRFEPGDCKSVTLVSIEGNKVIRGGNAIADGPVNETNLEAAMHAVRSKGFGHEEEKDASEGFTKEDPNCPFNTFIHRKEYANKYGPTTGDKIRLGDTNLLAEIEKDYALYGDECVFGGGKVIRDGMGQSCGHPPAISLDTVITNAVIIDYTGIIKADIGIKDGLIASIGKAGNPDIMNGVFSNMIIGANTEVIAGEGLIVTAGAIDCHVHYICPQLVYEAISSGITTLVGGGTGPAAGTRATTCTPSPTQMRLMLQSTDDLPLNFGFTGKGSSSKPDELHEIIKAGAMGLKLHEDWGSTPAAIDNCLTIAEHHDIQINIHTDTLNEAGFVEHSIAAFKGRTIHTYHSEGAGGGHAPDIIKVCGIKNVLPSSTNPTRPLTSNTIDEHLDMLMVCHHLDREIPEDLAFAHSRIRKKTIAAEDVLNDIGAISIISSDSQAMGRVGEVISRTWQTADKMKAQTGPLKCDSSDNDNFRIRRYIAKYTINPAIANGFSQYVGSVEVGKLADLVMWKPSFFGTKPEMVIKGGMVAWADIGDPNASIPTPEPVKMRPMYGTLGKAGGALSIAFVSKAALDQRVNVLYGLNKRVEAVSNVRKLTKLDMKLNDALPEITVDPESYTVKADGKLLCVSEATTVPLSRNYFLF
Method: Urease inhibition was measured by varying the concentration of urea in the presence of different concentrations (0, 0.125, 0.25 and 0.5 μM) of compound 8a. Inhibitory constant (Ki) was determined as the intersection on the X-axis of the secondary replot of 1/V (y-intercept of Lineweaver–Burk plot) versus inhibitor concentrations and by Dixon plot of inverse of velocities (1/V) versus inhibitor concentrations. Briefly the urea concentration was changed from 3.12 to 100 mM for urease kinetics studies and remaining procedure was same as describes in urease inhibition assay protocol. Urease activity was determined by measuring ammonia production using the indophenol method as reported previously. The results (change in absorbance per min) were processed by using SoftMaxPro software(Molecular Devices Corporation Sunnyvale, CA) and a Dixon plot was constructed by plotting (1/V) versus inhibitor concentration [I].

[3] = biological target: mushroom tyrosinase (Agaricus bisporus, UniProt C7FF04); assay: Kinetic study of mushroom tyrosinase inhibition (Lineweaver-Burk, secondary replot, Dixon plot); assay type: biochemical; conditions: substrate L-DOPA
Sequence of mushroom tyrosinase (C7FF04 2-392): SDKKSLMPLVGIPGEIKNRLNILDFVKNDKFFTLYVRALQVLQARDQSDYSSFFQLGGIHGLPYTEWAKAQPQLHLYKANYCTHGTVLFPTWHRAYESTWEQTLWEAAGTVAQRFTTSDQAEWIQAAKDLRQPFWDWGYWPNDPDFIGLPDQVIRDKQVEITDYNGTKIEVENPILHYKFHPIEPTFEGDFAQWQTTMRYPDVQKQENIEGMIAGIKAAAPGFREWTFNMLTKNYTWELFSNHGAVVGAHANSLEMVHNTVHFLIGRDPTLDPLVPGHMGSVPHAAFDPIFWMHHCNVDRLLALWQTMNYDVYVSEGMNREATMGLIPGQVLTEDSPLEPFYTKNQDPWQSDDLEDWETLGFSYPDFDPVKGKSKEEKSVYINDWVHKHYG
Method: Lineweaver–Burk plots of 1/absorbance versus 1/L-DOPA and 1/absorbance versus 1/Urea were used to determine the type of enzyme inhibition. A series of experiments were performed to determine the inhibition kinetics by following method[18] ^, [28] ^, [29]. Different inhibitor concentrations of compound 8b with 0, 15, 30, 61, 123 and 247 μM, 8j with 0, 14, 28 and 55.8 μM, respectively were used in case of mushroom tyrosinase inhibition. Substrate L-DOPA concentration was between 0.062 and 2 mM in all tyrosinase kinetic study. Pre-incubation and measurement time was the same as discussed in mushroom tyrosinase inhibition assay protocol. Maximal initial velocity was determined from initial linear portion of absorbance up to five minutes after addition of enzyme at a 30 s interval. The inhibition type on the enzyme was assayed by Lineweaver–Burk plots of inverse of velocities (1/V) versus inverse of substrate concentration 1/[S] mM ^− ^1, and the inhibition constant Ki was determined by two methods, by secondary replot of 1/V (y-intercept of Lineweaver–Burk plot) versus inhibitor concentrations and by Dixon plot of inverse of velocities (1/V) versus inhibitor concentrations.

T1 sequence (P07374 whole entry, looked up): as the sequence (P07374 whole entry, looked up) above

Row | Compound | IC50 [1] [µM] | other results
1 | CCOc1ccc(S(=O)(=O)NC[C@@H](C)O)cc1-c1nnc2c(n1)c(C)nn2C [8f, (R)-3-(1,3-dimethyl-1H-pyrazolo[4,3-e][1,2,4]triazin-5-yl)-4-ethoxy-N-(2-hydroxy-propyl)-benzenesulfonamide] |  | IC50 ([1]; read-out: Urease IC50, Jack bean urease, 100 mM urea, pH 8.2, 37 °C): 0.044 ± 0.13 µM
2 | CCOc1ccc(S(=O)(=O)N[C@@H](CO)C(C)C)cc1-c1nnc2c(n1)c(C)nn2C [8d, (R)-3-(1,3-dimethyl-1H-pyrazolo[4,3-e][1,2,4]triazin-5-yl)-4-ethoxy-N-(1-hydroxy-3-methylbutan-2-yl)benzenesulfonamide] | 0.064 ± 0.02 | 
3 | CCOc1ccc(S(=O)(=O)N[C@@H](C)CO)cc1-c1nnc2c(n1)c(C)nn2C [8a, (S)-3-(1,3-dimethyl-1H-pyrazolo[4,3-e][1,2,4]triazin-5-yl)-4-ethoxy-N-(1-hydroxy-propan-2-yl)benzenesulfonamide] | 0.037 ± 0.003 | Ki [2]: 0.01 µM; Urease type of inhibition ([2]; Lineweaver-Burk plot, substrate urea): Mixed type
4 | CCOc1ccc(S(=O)(=O)N[C@H](CO)CC(C)C)cc1-c1nnc2c(n1)c(C)nn2C [8i, (S)-3-(1,3-dimethyl-1H-pyrazolo[4,3-e][1,2,4]triazin-5-yl)-4-ethoxy-N-(1-hydroxy-4-methylpentan-2-yl)benzenesulfonamide] | 0.042 ± 0.012 | 
5 | CCOc1ccc(S(=O)(=O)NC[C@H](C)O)cc1-c1nnc2c(n1)c(C)nn2C [8e, (S)-3-(1,3-dimethyl-1H-pyrazolo[4,3-e][1,2,4]triazin-5-yl)-4-ethoxy-N-(2-hydroxy-propyl)-benzenesulfonamide] | 0.076 ± 0.007 | 
6 | CCOc1ccc(S(=O)(=O)NC[C@H](O)CO)cc1-c1nnc2c(n1)c(C)nn2C [8g, (S)-N-(2,3-dihydroxypropyl)-3-(1,3-dimethyl-1H-pyrazolo[4,3-e][1,2,4]triazin-5-yl)-4-ethoxybenzenesulfonamide] | 0.063 ± 0.016 | 
7 | CCOc1ccc(S(=O)(=O)N[C@H](C)CO)cc1-c1nnc2c(n1)c(C)nn2C [8b, (R)-3-(1,3-dimethyl-1H-pyrazolo[4,3-e][1,2,4]triazin-5-yl)-4-ethoxy-N-(1-hydroxy-propan-2-yl)benzenesulfonamide] | 0.084 ± 0.02 | Mushroom tyrosinase type of inhibition [3]: Noncompetitive
8 | CCOc1ccc(S(=O)(=O)N[C@@H](CO)CC(C)C)cc1-c1nnc2c(n1)c(C)nn2C [8j, (R)-3-(1,3-dimethyl-1H-pyrazolo[4,3-e][1,2,4]triazin-5-yl)-4-ethoxy-N-(1-hydroxy-4-methylpentan-2-yl)benzenesulfonamide] | 0.08 ± 0.015 | Mushroom tyrosinase type of inhibition [3]: Mixed type
9 | CCOc1ccc(S(=O)(=O)N[C@H](CO)C(C)C)cc1-c1nnc2c(n1)c(C)nn2C [8c, (S)-3-(1,3-dimethyl-1H-pyrazolo[4,3-e][1,2,4]triazin-5-yl)-4-ethoxy-N-(1-hydroxy-3-methylbutan-2-yl)benzenesulfonamide] | 0.078 ± 0.02 | 
10 | CCOc1ccc(S(=O)(=O)NC[C@@H](O)CO)cc1-c1nnc2c(n1)c(C)nn2C [8h, (R)-N-(2,3-dihydroxypropyl)-3-(1,3-dimethyl-1H-pyrazolo[4,3-e][1,2,4]triazin-5-yl)-4-ethoxybenzenesulfonamide] | 0.08 ± 0.014 | 
11 | NC(N)=S [Thio-Urea, thiourea, reference compound] |  | IC50 ([1]; Jack bean urease, 100 mM urea, pH 8.2, 37 °C, read-out: Urease IC50): 20.7 ± 0.45 µM
